US6511817B1, “Methods and device for in vitro detection and characterization of psychoactives using analysis of repetitive electrical activity in a neuronal sample” (Matsushita Electric Industrial Co., Ltd., priority 1999, dated 2003)
Entries after “also recorded” stand apart in the source; their conditions may differ.

Tests used:
Type in all cases: cell-based, Sprague-Dawley rat
hippocampal slice [1] = assay: Effect of bath-applied drugs on carbachol-induced beta waves in hippocampal slices on a 64-electrode MED array, FFT analysis; settings: for power within the 20 Hz band / shift in the peak: 10 μM Ampakine after carbachol
From the text: (§1) The general procedures for the preparation of the Multi-Electrode Dish (Matsushita Electric Industrial Co. Ltd., Osaka, Japan: “the MED probe”) were described above. Procedures for the MED probe preparation are also described by Oka et al. […]. The device has an array of 64 planar microelectrodes, each having a size of 50×50 μm, arranged in an 8 by 8 pattern. Probes come with two types of interpolar distance, 150 μm (Panasonic: MED-P515AP) and 450 μm (Panasonic: MED-P545AP).
(§2) To provide sufficient adhesion of the neuronal sample slice to the MED surface, the surface of the MED probe was treated with 0.1% polyethylenimine (Sigma: P-3143) in 25 mM borate buffer, pH 8.4, for 8 hours at room temperature. The probe surface was rinsed 3 times with sterile distilled water. The probe (chamber) was then filled with DMEM/F-12 mixed medium, containing 10% fetal bovine serum (GIBCO: 16141-079) and 10% horse serum (GIBCO: 16050-122), for at least 1 hour at 37° C. DMEM/F-12 mixed medium is a 1:1 mixture of Dulbecco's Modified Eagle's Medium and Ham's F-12 (GIBCO: D/F-12 medium, 12400-024), supplemented with N2 supplement (GIBCO: 17502-014) and hydrocortisone (20 nM, Sigma, H0888).
(§3) A 17-24 day old Sprague-Dawley rat was sacrificed by decapitation after anesthesia using halothane (2-Bromo-2 chloro-1,1,1 -trifluoroethane, Sigma: B4388), and the whole brain was removed carefully. The brain was immediately soaked in ice-cold, oxygenated preparation buffer of the following composition (in mM): 124 NaCl, 26 NaHCO3, 10 glucose, 3 KCl, 1.25 NaH2PO4, 2 CaCl2, 2 MgSO4, for approximately 2 minutes. Appropriate portions of the brain were trimmed and placed on the ice-cold stage of a vibrating tissue slicer (Leica: VT-1000S). The stage was immediately filled with both oxygenated and frozen preparation buffers. The thickness of each tissue slice was 350 μm. Each slice was gently taken off the blade by a painting brush, trimmed, and immediately soaked in the oxygenated preparation buffer for 1 hour at room temperature. Then a slice was placed on the center of the MED probe. The slice was positioned to cover the 8×8 array. After positioning the slice, the MED probe was immediately placed in a box filled with 95% O^2 and 5% CO^2 and allowed to recover at 32° C. for 1 hour.
(§4) During electrophysiological recording, the slices on the MED probe were placed in a small CO2 incubator (Asahi Lifescience: model 4020) at 32° C. After recovery of the slice on the MED probe, the medium was replaced with DMEM/F-12 mixed medium without serum. The slices were on the interface, and contacted with a moisturized 95% O2 and 5% CO2 gas mixture. In this condition, the responses were recorded for more than 2 hours.
(§5) Drugs were purchased from RBI (diazepam, bicuculline, CNQX, 2-hydroxysaclofen) or Sigma (all other compounds). CX614 and CX691 were produced by Cortex Pharmaceuticals Inc. (Irvine, Calif.). All drugs were bath applied at known concentrations and were prepared daily from frozen aliquots.
(§6) Spontaneous and evoked field potentials at all 64 sites were recorded simultaneously with the multi-channel recording system (Matsushita Electric Industrial Co. Ltd, the “MED64 system”) at a 20 kHz sampling rate. In the case of the evoked response, one of the planar microelectrodes out of the 64 available was used for cathode of stimulating. Bipolar constant current pulses (10 to 50 μA, 0.1 msec) were produced by the data acquisition software through the isolator. The stimulating microelectrode was selected by the 64 switch-box. The measured field potentials were then subjected to analysis using the CSD analysis (Nicholson et al) discussed below.

hippocampal slice [2] = assay: Carbachol induction of rhythmic activity in hippocampus (fields CA1 and CA3), MED array, FFT analysis; settings: for group mean dominant CA1 frequency / group mean dominant CA3 frequency: mean ± s.d.
From the text: as §1, §2, §3, §4, §5, §6

entorhinal cortex = assay: Carbachol-induced 40 Hz rhythm in retrohippocampal cortex, MED broad array
Description: as §3, with “Then a slice was placed on the center of the MED probe. The slice was positioned to cover the 8×8 array. After positioning the slice, the MED probe was immediately placed in a box filled with 95% O^2 and 5% CO^2 and allowed to recover at 32° C. for 1 hour.” left out
During electrophysiological recording, the slices on the MED probe were placed in a small CO2 incubator (Asahi Lifescience: model 4020) at 32° C. […] In this condition, the responses were recorded for more than 2 hours.
Spontaneous and evoked field potentials at all 64 sites were recorded simultaneously with the multi-channel recording system (Matsushita Electric Industrial Co. Ltd, the “MED64 system”) at a 20 kHz sampling rate. […] The measured field potentials were then subjected to analysis using the CSD analysis (Nicholson et al) discussed below. […]

[3] = diazepam plus carbachol, FIG. 13C

O=C(c1ccc2nonc2c1)N1CCCCC1 [CX691]
power within the 20 Hz band (hippocampal slice [1]): significant increase | shift in the peak (hippocampal slice [1]): 10 Hz

N#Cc1cc2[nH]c(=O)c(=O)[nH]c2cc1[N+](=O)[O-] [CNQX]
amplitude of carbachol-induced waves (hippocampal slice [1]; 20 μM): significantly diminished and/or eliminated | effect on carbachol-induced high frequency rhythms (hippocampal slice [1]; 20 μM): greatly reduced | power of carbachol-induced waves (hippocampal slice [1]; 20 μM): significant decrease | synchronized activity in carbachol-treated sample (hippocampal slice [1]; 20 μM): very rapid loss

O=[N+]([O-])c1cc2nc(O)c(O)nc2cc1[N+](=O)[O-] [DNQX]
amplitude of carbachol-induced waves (hippocampal slice [1]; 20 μM): significantly diminished and/or eliminated | power of carbachol-induced waves (hippocampal slice [1]; 20 μM): significant decrease | synchronized activity in carbachol-treated sample (hippocampal slice [1]; 20 μM): very rapid loss

picrotoxin
effect on carbachol-induced beta waves (hippocampal slice [1]; 50 μM picrotoxin): marked reduction

C[N+](C)(C)CCOC(N)=O [carbachol, carbyl choline chloride]
slices with rhythmic activity in CA1 and CA3 close to or within the beta band (10-30 Hz) (hippocampal slice [2]; after infusion of carbachol): 41 of 55 | group mean dominant CA1 frequency (hippocampal slice [2]; all slices): 18.8±5.7 Hz | group mean dominant CA3 frequency (hippocampal slice [2]; all slices): 16.4±5.7 Hz | group mean dominant CA1 frequency (hippocampal slice [2]; beta instances alone): 19.2±4.8 Hz | group mean dominant CA3 frequency (hippocampal slice [2]; beta instances alone): 17.3±4.2 Hz | peak of rhythmic activity in apical dendrites of hippocampal pyramidal cell fields (hippocampal slice [2]; carbachol 50 μM): ~20 Hz | peak of the power spectrum (hippocampal slice [2]; example slice of FIG. 6B): 20 Hz | frequency of oscillations in deep layers of the medial entorhinal cortex (entorhinal cortex; carbachol 50 μM): 40 Hz | slices with forty Hz activity in the deep layers of the entorhinal cortex (entorhinal cortex; slices with appropriately positioned electrodes): each of the 15 slices

NS(=O)(=O)c1cccc2c1c([N+](=O)[O-])cc1nc(O)c(O)nc12 [NBQX]
amplitude of carbachol-induced waves (hippocampal slice [1]; 10 μM): significantly diminished and/or eliminated | power of carbachol-induced waves (hippocampal slice [1]; 10 μM): significant decrease | synchronized activity in carbachol-treated sample (hippocampal slice [1]; 10 μM): very rapid loss

CN1C(=O)CN=C(c2ccccc2)c2cc(Cl)ccc21 [diazepam]
amplitude of beta oscillations (hippocampal slice [1]; 3 μM diazepam, 20 μM carbachol): markedly enhanced | change in the frequency of the waves (hippocampal slice [1]; 3 μM diazepam, 20 μM carbachol): not accompanied by a significant change; also recorded: without much shift | increase in power within the 20 Hz band over carbachol alone (hippocampal slice [1]; [3]): nearly threefold increase | peak added at a higher (gamma) frequency (hippocampal slice [1]; [3]): approximately 40 Hz

O=C1c2cc3c(cc2OC2CCCN12)OCCO3 (centres unmarked) [CX614]
power within the 20 Hz band (hippocampal slice [1]): significant increase | shift in the peak (hippocampal slice [1]): 10 Hz

CN1[C@@H]2CC[C@H]1C[C@@H](OC(=O)C(CO)c1ccccc1)C2 (some centres unmarked) [atropine]
effect on carbachol-induced high frequency rhythms (hippocampal slice [1]; 20 μM): completely eliminated
